Measurements reported in ChEMBL document CHEMBL1136155, “Search compounds with antimicrobial activity by applying molecular topology to selected quinolones” (Bioorg Med Chem Lett, 2003).
The source made the active and inactive calls. The rule behind the calls is not given here.

Columns and labels:
Klebsiella aerogenes = test: Activity against Enterobacter aerogenes; assay type: functional
Pseudomonas aeruginosa = test: Antimicrobial activity against Pseudomonas aeruginosa 108;IA is Inactive; assay type: functional, organism-based
in vivo = details: eutheria
Proteus mirabilis [1] = test: The compound has antimicrobial activity against Proteus mirabilis; Active; assay type: functional, organism-based
Staphylococcus aureus [2] = test: The compound has antimicrobial activity against Staphylococcus aureus; Active; assay type: functional, organism-based
Enterococcus faecalis [3] = test: The compound has antimicrobial activity against Enterococcus faecalis; Active; assay type: functional, organism-based
Escherichia coli = test: Antimicrobial activity against Escherichia coli;IA is Inactive; assay type: functional, organism-based
Proteus mirabilis [4] = test: Antimicrobial activity against Proteus mirabilis;IA is Inactive; assay type: functional, organism-based
Staphylococcus aureus [5] = test: Antimicrobial activity against Staphylococcus aureus;IA is Inactive; assay type: functional, organism-based
Enterococcus faecalis [6] = test: Antimicrobial activity against Enterococcus faecalis;IA is Inactive; assay type: functional, organism-based

Structure (SMILES)	CMI (Klebsiella aerogenes)	bioavailability (in vivo)	further results
CCn1cc(C(=O)O)c(=O)c2ccc(C)nc21 [NALIDIXIC ACID]	3 mg/L	60%	Activity (Pseudomonas aeruginosa): inactive; Activity (Proteus mirabilis [1]): Active; Activity (Staphylococcus aureus [2]): Active; Activity (Enterococcus faecalis [3]): Active; Activity (Escherichia coli): inactive
CCn1cc(C(=O)O)c(=O)c2cc3c(cc21)OCO3 [OXOLINIC ACID]	0.5 mg/L	–	–
CNn1cc(C(=O)O)c(=O)c2cc(F)c(N3CCN(C)CC3)cc21 [AMIFLOXACIN]	0.11 mg/L	–	–
OCC(O)C(OC1CO1)OC1CO1 (stereo not given)	–	–	Activity (Pseudomonas aeruginosa): inactive; Activity (Proteus mirabilis [4]): inactive; Activity (Staphylococcus aureus [5]): inactive; Activity (Enterococcus faecalis [6]): inactive; Activity (Escherichia coli): inactive
CCn1cc(C(=O)O)c(=O)c2cc(F)c(N3CCNC(C)C3)c(F)c21 (stereo not given) [LOMEFLOXACIN]	0.16 mg/L	98%	–
CC1CN(c2cc3c(cc2F)c(=O)c(C(=O)O)cn3-c2ccc(F)cc2F)CCN1 (stereo not given) [TEMAFLOXACIN]	0.16 mg/L	90%	–
CC1COc2c(N3CCN(C)CC3)c(F)cc3c(=O)c(C(=O)O)cn1c23 (stereo not given) [OFLOXACIN]	0.12 mg/L	94.4%	–
NC1CCN(c2nc3c(cc2F)c(=O)c(C(=O)O)cn3-c2ccccc2F)C1 (stereo not given) [TUSOFLOXACINE]	0.05 mg/L	–	–
CCn1cc(C(=O)O)c(=O)c2cnc(N3CCNCC3)nc21 [PIPEMIDIC ACID]	2 mg/L	–	–
CC1=CC(=C(c2cc(C)c(O)c(CN(CC(=O)O)CC(=O)O)c2)c2ccccc2S(=O)(=O)O)C=C(CN(CC(=O)O)CC(=O)O)C1=O	–	–	Activity (Pseudomonas aeruginosa): inactive; Activity (Proteus mirabilis [1]): Active; Activity (Staphylococcus aureus [5]): inactive; Activity (Enterococcus faecalis [6]): inactive; Activity (Escherichia coli): inactive
CN1CCN(c2cc3c(cc2F)c(=O)c(C(=O)O)cn3-c2ccc(F)cc2)CC1 [DIFLOXACIN]	0.19 mg/L	–	–
CCn1cc(C(=O)O)c(=O)c2cc(F)c(N3CCNCC3)cc21 [NORFLOXACIN]	0.1 mg/L	63%	–
CCn1cc(C(=O)O)c(=O)c2cc(F)c(N3CCN(C)CC3)cc21 [PEFLOXACIN]	0.12 mg/L	91.2%	–
Nc1ccc(C(=O)Nc2ccc3c(O)c(/N=N/c4ccc(C(=O)Nc5ccc(/N=N/c6ccc7cc(S(=O)(=O)O)cc(S(=O)(=O)O)c7c6)c(O)c5)cc4)c(S(=O)(=O)O)cc3c2)cc1	–	–	Activity (Pseudomonas aeruginosa): inactive; Activity (Proteus mirabilis [4]): inactive; Activity (Staphylococcus aureus [5]): inactive; Activity (Enterococcus faecalis [6]): inactive; Activity (Escherichia coli): inactive
O=C(O)c1cn(C2CC2)c2cc(N3CCNCC3)c(F)cc2c1=O [CIPROFLOXACIN]	0.03 mg/L	–	–
CCn1cc(C(=O)O)c(=O)c2cc(F)c(N3CCNCC3)nc21 [ENOXACIN]	0.16 mg/L	87.4%	–
